Assays:
Human PKMYT1 = biological target: T1, Human PKMYT1 (Homo sapiens, UniProt Q99640); assay: PKMYT1 biochemical ADP-Glo enzymatic assay; conditions: ADP-Glo; 15 nM PKMYT1 kinase domain, 500 µM ATP, 60 minutes at 26° C.; banded
T1 construct: Human PKMYT1 75-362 was cloned as a TEV cleavable 6xHis fusion; 6xHis (TEV cleavable) (cleaved yes); made in house; host or cells: bacterial cells
T1 sequence (Q99640 75-362): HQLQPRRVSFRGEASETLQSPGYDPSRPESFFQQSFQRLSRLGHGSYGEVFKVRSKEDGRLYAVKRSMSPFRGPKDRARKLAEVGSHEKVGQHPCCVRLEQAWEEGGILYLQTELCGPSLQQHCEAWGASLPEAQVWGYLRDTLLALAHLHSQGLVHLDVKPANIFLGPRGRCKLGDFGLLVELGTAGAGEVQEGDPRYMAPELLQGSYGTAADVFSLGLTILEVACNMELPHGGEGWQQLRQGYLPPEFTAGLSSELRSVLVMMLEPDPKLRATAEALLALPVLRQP
Procedure, shortened: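 Purified untagged human PKMYT1 75-362 at 15 nM final was tested in HEPES pH 7.5 with MgCl2, EGTA, Brij-35 and 1% DMSO. Intrinsic ATPase activity was measured with 500 uM ATP over 60 min at 26° C. ADP-Glo luminescence was read and IC50 fitted from 10-point, 3-fold dilution curves.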

WEE1 = biological target: T2, WEE1 (Homo sapiens, UniProt P30291); assay: Selectivity versus WEE1 assay (ADP-Glo enzymatic assay); type: biochemical; conditions: banded; for IC50: ADP-Glo, 15 nM WEE1, 60 minutes at 26° C.; for PKMYT1 vs. WEE1 selectivity: fold difference in selectivity for PKMYT1 over WEE1, ">N" = at least in this band but could be higher
T2 construct: purchased Thermo Fisher PR7373A
Procedure, shortened: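 WEE1 at 15 nM final in 50 mM HEPES pH 7.5, 10 mM MgCl2, 1 mM EGTA, 0.01% Brij-35, 1% DMSO; reaction started with 30 µM ATP, 60 min at 26 °C. ADP-Glo luminescence; IC50 from dose-response curves, replicates within 3-fold and r2 >0.9.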

T2 sequence (P30291 whole entry): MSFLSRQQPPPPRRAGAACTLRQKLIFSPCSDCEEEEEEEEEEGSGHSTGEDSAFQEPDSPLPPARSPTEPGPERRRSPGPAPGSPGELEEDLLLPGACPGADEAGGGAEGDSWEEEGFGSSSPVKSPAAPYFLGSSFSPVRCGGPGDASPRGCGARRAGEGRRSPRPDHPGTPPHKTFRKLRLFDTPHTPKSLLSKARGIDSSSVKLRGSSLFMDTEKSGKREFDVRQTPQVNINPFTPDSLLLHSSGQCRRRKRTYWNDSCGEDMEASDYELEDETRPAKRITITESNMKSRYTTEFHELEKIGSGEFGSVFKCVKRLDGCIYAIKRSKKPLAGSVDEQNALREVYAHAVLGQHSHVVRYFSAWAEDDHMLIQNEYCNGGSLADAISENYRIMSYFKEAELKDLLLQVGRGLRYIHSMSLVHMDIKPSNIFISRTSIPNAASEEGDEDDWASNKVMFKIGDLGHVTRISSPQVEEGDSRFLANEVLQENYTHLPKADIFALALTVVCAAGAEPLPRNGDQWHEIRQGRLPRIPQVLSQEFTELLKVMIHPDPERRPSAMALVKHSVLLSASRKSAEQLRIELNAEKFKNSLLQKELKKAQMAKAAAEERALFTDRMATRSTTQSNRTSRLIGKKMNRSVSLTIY

Structure (SMILES)	IC50 (Human PKMYT1)	IC50 (WEE1)	PKMYT1 vs. WEE1 selectivity (WEE1)
Cc1ccc(O)c(C)c1NC(=O)c1cnc(Nc2ccn(CCCN3CCOCC3)n2)s1 [BAA-101]	50 to 1000 nM	> 11000 nM	>X (100-<1000 fold)
Cc1ccc(O)c(C)c1NC(=O)c1cnc(Nc2ccn([C@@H]3CCN(C(=O)Cc4cccnc4)C3)n2)s1 [BAA-102]	50 to 1000 nM	> 11000 nM	>Y (1000-5000 fold)
Cc1ccc(O)c(C)c1NC(=O)c1cnc(Nc2ccn([C@@H]3CCN(C(=O)Cn4cccn4)C3)n2)s1 [BAA-103, N-(3-hydroxy-2,6-dimethyl-phenyl)-2-[1-[(3R)-1-(2-pyrazol-1-ylacetyl)pyrrolidin-3-yl]pyrazol-3-yllamino]thiazole-5-carboxamide]	50 to 1000 nM	> 11000 nM	>X (100-<1000 fold)
Cc1ccc(O)c(C)c1NC(=O)c1cnc(Nc2ccn([C@@H]3CCN(C(=O)Cc4ccncc4)C3)n2)s1 [BAA-104, N-(3-hydroxy-2,6-dimethyl-phenyl)-2-[1-[(3R)-1-[2-(4-pyridyl)acetyl]pyrrolidin-3-yl]pyrazol-3-ylamino]thiazole-5-carboxamide]	50 to 1000 nM	> 11000 nM	>X (100-<1000 fold)
Cc1ccc(O)c(C)c1NC(=O)c1cnc(Nc2ccn([C@@H]3CCN(C(=O)Cc4ccc(N(C)C)cc4)C3)n2)s1 [BAA-105, 2-[[1-[(3R)-1-[2-[4-(dimethylamino)phenyl]acetyl]pyrrolidin-3-yl]pyrazol-3-yl]amino]-N-(3-hydroxy-2,6-dimethyl-phenyl) thiazole-5-carboxamide]	50 to 1000 nM	> 11000 nM	>Y (1000-5000 fold)
Cc1ccc(O)c(C)c1NC(=O)c1cnc(Nc2ccn([C@@H]3CCN(C(=O)CC4CCNCC4)C3)n2)s1 [BAA-107, N-(3-Hydroxy-2,6-dimethyl-phenyl)-2-[[1-[(3R)-1-[2-(4-piperidyl)acetyl]pyrrolidin-3-yl]pyrazol-3-yl]amino]thiazole-5-carboxamide]	50 to 1000 nM	> 11000 nM	>X (100-<1000 fold)
CCNC(=O)N1CC[C@@H](n2ccc(Nc3ncc(C(=O)Nc4c(C)ccc(O)c4C)s3)n2)C1 [BAA-109, 2-[[1-[(3R)-1-(Ethylcarbamoyl)pyrrolidin-3-yl]pyrazol-3-yl]amino]-N-(3-hydroxy-2,6-dimethyl-phenyl)thiazole-5-carboxamide]	50 to 1000 nM	> 11000 nM	>X (100-<1000 fold)
Cc1ccc(O)c(C)c1NC(=O)c1cnc(Nc2ccn([C@@H]3CCN(C(=O)NC4CC4)C3)n2)s1 [BAA-110, 2-[[1-[(3R)-1-(Cyclopropylcarbamoyl)pyrrolidin-3-yl]pyrazol-3-yl]amino]-N-(3-hydroxy-2.6-dimethyl-phenyl)thiazole-5-carboxamide]	50 to 1000 nM	> 11000 nM	>X (100-<1000 fold)
CCN(C)C(=O)N1CC[C@@H](n2ccc(Nc3ncc(C(=O)Nc4c(C)ccc(O)c4C)s3)n2)C1 [BAA-111, 2-[[1-[(3R)-1-[Ethyl(methyl)carbamoyl]pyrrolidin-3-yl]pyrazol-3-yl]amino]-N-(3-hydroxy-2,6-dimethyl-phenyl)thiazole-5-carboxamide]	50 to 1000 nM	> 11000 nM	>Y (1000-5000 fold)
CCN(CC)C(=O)N1CC[C@@H](n2ccc(Nc3ncc(C(=O)Nc4c(C)ccc(O)c4C)s3)n2)C1 [BAA-112, 2-[[1-[(3R)-1-(Diethylcarbamoyl)pyrrolidin-3-yl]pyrazol-3-yl]amino]-N-(3-hydroxy-2,6-dimethyl-phenyl)thiazole-5-carboxamide]	50 to 1000 nM	> 11000 nM	>Y (1000-5000 fold)
CCCN1CC[C@@H](n2ccc(Nc3ncc(C(=O)Nc4c(C)ccc(O)c4C)s3)n2)C1 [BAA-114, N-(3-Hydroxy-2,6-dimethyl-phenyl)-2-[[1-[(3R)-1-propylpyrrolidin-3-yl]pyrazol-3-yl]amino]thiazole-5-carboxamide]	50 to 1000 nM	> 11000 nM	>X (100-<1000 fold)
Cc1ccc(O)c(C)c1NC(=O)c1cnc(Nc2ccn([C@@H]3CCN(CCc4ccccc4)C3)n2)s1 [BAA-115]	50 to 1000 nM	> 11000 nM	>X (100-<1000 fold)
Cc1ccc(O)c(C)c1NC(=O)c1cnc(Nc2ccn([C@@H]3CCN(C)C3)n2)s1 [BAA-116, N-(3-Hydroxy-2,6-dimethyl-phenyl)-2-[[1-[(3R)-1-methylpyrrolidin-3-yl]pyrazol-3-yl]amino]thiazole-5-carboxamide]	50 to 1000 nM	1000 to 11000 nM	W (10-<100 fold)
CNC(=O)c1cc(Nc2ncc(C(=O)Nc3c(C)ccc(O)c3C)s2)nn1C [BAA-119, N-(3-hydroxy-2,6-dimethyl-phenyl)-2-[[1-methyl-5-(methylcarbamoyl)pyrazol-3-yl]amino]thiazole-5-carboxamide]	50 to 1000 nM	> 11000 nM	X (100-<1000 fold)
Cc1ccc(O)c(C)c1NC(=O)c1cnc(Nc2cc(C(=O)N(C)C)n(C)n2)s1 [BAA-120, 2-[[5-(dimethylcarbamoyl)-1-methyl-pyrazol-3-yl]amino]-N-(3-hydroxy-2,6-dimethyl-phenyl)thiazole-5-carboxamide]	50 to 1000 nM	1000 to 11000 nM	X (100-<1000 fold)
Cc1ccc(O)c(C)c1NC(=O)c1cnc(Nc2cc(C(=O)O)nn2C)s1 [BAA-121, 5-[[5-[(3-hydroxy-2,6-dimethyl-phenyl)carbamoyl]thiazol-2-yl]amino]-1-methyl-pyrazole-3-carboxylic acid]	50 to 1000 nM	> 11000 nM	X (100-<1000 fold)
Cc1ccc(O)c(C)c1NC(=O)c1cnc(Nc2cc(C)n(C)n2)s1 [BAA-122, 2-[(1,5-dimethylpyrazol-3-yl)amino]-N-(3-hydroxy-2,6-dimethyl-phenyl)thiazole-5-carboxamide]	50 to 1000 nM	1000 to 11000 nM	X (100-<1000 fold)

Second part, the compound after the results:

IC50 (Human PKMYT1)	IC50 (WEE1)	PKMYT1 vs. WEE1 selectivity (WEE1)	Structure (SMILES)
50 to 1000 nM	> 11000 nM	>X (100-<1000 fold)	COc1ccc(CC(=O)N2CCC(CNc3ncc(C(=O)Nc4c(C)ccc(O)c4C)s3)CC2)nc1 [BAA-100, N-(3-Hydroxy-2,6-dimethyl-phenyl)-2-[[1-[2-(5-methoxy-2-pyridyl)acetyl]-4-piperidyl]methylamino]thiazole-5-carboxamide]
< 50 nM	> 11000 nM	>Y (1000-5000 fold)	Cc1ccc(O)c(C)c1NC(=O)c1cnc(Nc2ccn([C@@H]3CCN(C(=O)Cc4ccc(N)cc4)C3)n2)s1 [BAA-106, 2-[[1-[(3R)-1-[2-(4-Aminophenyl)acetyl]pyrrolidin-3-yl]pyrazol-3-yl]amino]-N-(3-hydroxy-2,6-dimethyl-phenyl)thiazole-5-carboxamide]
< 50 nM	> 11000 nM	>Y (1000-5000 fold)	Cc1ccc(O)c(C)c1NC(=O)c1cnc(Nc2ccn([C@@H]3CCN(C(=O)NCc4ccccc4)C3)n2)s1 [BAA-108, 2-[[1-[(3R)-1-(Benzylcarbamoyl)pyrrolidin-3-yl]pyrazol-3-yl]amino]-N-(3-hydroxy-2,6-dimethyl-phenyl)thiazole-5-carboxamide]
< 50 nM	> 11000 nM	Y (1000-5000 fold)	Cc1ccc(O)c(C)c1NC(=O)c1cnc(Nc2ccn(CC(=O)N(C)C)n2)s1 [BAA-117, 2-[[1-[2-(Dimethylamino)-2-oxo-ethyl]pyrazol-3-yl]amino]-N-(3-hydroxy-2,6-dimethyl-phenyl)thiazole-5-carboxamide]
< 50 nM	> 11000 nM	X (100-<1000 fold)	Cc1ccc(O)c(C)c1NC(=O)c1cnc(Nc2cc(C(=O)O)n(C)n2)s1 [BAA-118, 5-[[5-[(3-hydroxy-2,6-dimethyl-phenyl)carbamoyl]thiazol-2-yl]amino]-2-methyl-pyrazole-3-carboxylic acid]
< 50 nM	> 11000 nM	X (100-<1000 fold)	Cc1ccc(O)c(C)c1NC(=O)c1cnc(Nc2cc(C)n(CC(=O)O)n2)s1 [BAA-124, 2-[3-[[5-[(3-hydroxy-2,6-dimethyl-phenyl)carbamoyl]thiazol-2-yl]amino]-5-methyl-pyrazol-1-yl]acetic acid]
< 50 nM	> 11000 nM	Y (1000-5000 fold)	Cc1cn(CC(=O)O)nc1Nc1ncc(C(=O)Nc2c(C)ccc(O)c2C)s1 [BAA-125, 2-[3-[[5-[(3-hydroxy-2,6-dimethyl-phenyl)carbamoyl]thiazol-2-yl]amino]-4-methyl-pyrazol-1-yl]acetic acid]
< 50 nM	> 11000 nM	Y (1000-5000 fold)	Cc1cc(Nc2ncc(C(=O)Nc3c(C)ccc(O)c3C)s2)n(C)n1 [BAA-127, 2-[(2,5-dimethylpyrazol-3-yl)amino]-N-(3-hydroxy-2,6-dimethyl-phenyl)thiazole-5-carboxamide]
